Laboratory results taken from patent US8618080B2, “Immunomodulatory compounds and treatment of diseases related to an overproduction of inflammatory cytokines” (OM Pharma, priority 2006, dated 2013).

How the values were obtained:
[1] = tested on: LACK-sensitized and challenged mice; test: LACK-induced allergic asthma model, therapeutic i.p. treatment; format: in vivo
Procedure: The main differences compared to the previous (part a) protocol are: • Mice were treated with OM-197-MP-AC i.p. only on days 15, 17 and 19 (i.e. at least 1 week after the second sensitization) at the dose of 1 mg/Kg (20 μg per mouse). • The lung cytokines measured by multiplex analysis using FACSArray were IL-4, IL-5, IL-13, IFN-γ, and IL-10. Results: Total Cell Number and Eosinophils in BAL:
Two days after the last aerosol, mice were sacrificed and BAL cells harvested.
In order to further characterize the immune status of mice after therapeutic treatment with OM-197-MP-AC, we analyzed LACK-specific IgE in sera of treated mice and in those of untreated mice by ELISA. Whereas LACK-specific IgE levels increased 7-fold upon exposition to LACK aerosols, sera of OM-197-MP-AC-treated mice contained 2-fold less (p<0.05) LACK-specific IgE compared to untreated LACK challenged mice.
FIG. 8: Mice were therapeutically treated three times as described in the method section, lavages were performed in individual mice bled with a canula inserted into their trachea. Lungs were washed 3 times with 1 ml of warmed PBS. Cells were washed with PBS, resuspended in 300 μl, and counted using a Burker-Türk chamber. For differential BAL cell counts, cytospin preparations were made and stained with Wright/Giemsa coloration. The groups tested were: LACK-sensitized and PBS-challenged wt mice (Control), LACK-sensitized and challenged wt mice (Asthma), and OM-197-MP-AC-treated wt mice (OM-197). The total cell number in BAL was determined by microscopic examination of cytospin preparations stained with Wright/Giemsa coloration. The dotted line indicates throughout the graph the value obtained in untreated asthmatic animals.
FIG. 9: Percentage of eosinophils in BAL analyzed by microscopic examination of cytospin preparations stained with Wright/Giemsa coloration. Mice were therapeutically treated three times as described in the method section, cells from BAL were harvested as explained in FIG. 8. The (therapeutic) groups studied are the same as those used in FIG. 8. The dotted line indicates throughout the graph the value obtained in untreated asthmatic animals.
FIG. 10: To analyze lung cytokine contents, lungs were harvested and left lungs were used to prepare protein extracts. 400 μl were recovered for each left lung. Cytokines were measured by multiplex analysis using FACSArray, and results are given in pg/ml. The (therapeutic) groups studied are the same as those used in FIGS. 8 and 9. The dotted lines indicate throughout the graphs the values obtained in untreated asthmatic animals.

murine DC cells = test: LPS-induced IL-12, TNF-α and IL-10 production by bone marrow derived dendritic cells; format: cell-based, murine (C57BL/7); settings: murine BM-derived DC; compound 0.01-100 μg/ml 1 h 30 before LPS 1 μg/ml; 20 h; ELISA
Procedure: Femora and tibiae from two male C57BL/7, 6 week-old (Charles River Laboratories France), were removed, stripped of muscles and tendons, and desinfected with 70% ethanol. Both ends of each bone were cut and the marrow was flushed with HBSS (Gibco BRL) using a syringe with a 26-gauge needle. The resulting cell suspension was centrifuged for 5 min. at 500 g and washed in HBSS. The cells were resuspended at 3×10^5 cells/ml in RPMI-1640 (Gibco BRL) supplemented with 2 mM L-glutamin (Sigma), 100 U/ml penicillin (Sigma), 100 μg/ml streptomycin (Sigma), 50 μM β-mercaptoethanol (Sigma), 10% heat-inactivated FCS (Sigma) and 15 ng/ml murine rGM-CSF (R&D).
To generate bone marrow (BM) derived dendritic cells (DC), BM leukocytes were cultured in 100-mm bacteriological petri dishes (Falcon 1029) for 8 days at 37° C. in 5% CO2. On day 0, 10 ml of cell suspension were seeded per dish. On day 3, another 10 ml of freshly prepared medium were added to each plate and on day 6, 9 ml of top medium were carefully removed from each plate and replaced by 10 ml of fresh medium.
Non-adherent cells of the 8-day old BM cell cultures were collected, centrifuged for 5 min. at 500 g, and resuspended at 1.25×10^6 cells/ml in supplemented RPMI containing 10 ng/ml GM-CSF. The cells were then seeded in 24-well tissue culture plates ([…]) and incubated for 1 h 30 at 37° C. in 5% CO2 in the absence or presence of OM-294-DP or OM-197-MP-AC (0.01-100 μg/ml/200 μl/well). LPS (E.coli O26:B6, Sigma), was then added at 1 μg/ml, and the plates were further incubated. After 20 h incubation, the supernatants were collected for analysis of cytokines. IL-12p70, IL-10, and TNF-α concentrations in DC culture supernatants were measured by ELISA using OptEIA matched Ab pairs from BD Pharmingen. Supersignal ELISA Pico chemiluminescent peroxidase substrate (BD Pharmingen) was used for the detection by luminometry (Wallac 1420 multilabel counter Victor-2). The assays were performed according to manufacturer's instructions.
FIG. 1: IL-12 (left panels) and IL-10 (right panels) secretion by murine DC stimulated by LPS (1 μg/ml) alone, or first during 90 minutes with the indicated concentrations (in μg/ml) of OM-197-MP-AC (A) or 294-DP (B), and then by LPS (1 μg/ml) for 20 additional hours. The supernatants were collected from the DC cultures and analyzed by ELISA for the presence of IL-12 and IL-10.
FIG. 2: TNF-α secretion by murine DC stimulated by LPS (1 μg/ml) alone, or first during 90 minutes with the indicated concentrations (in μg/ml) of 294-DP (294), or of OM-197-MP-AC (197), and then by LPS (1 μg/ml) for 20 additional hours. The supernatants were collected from the DC cultures and analyzed by ELISA for the presence of TNF-α.

[2] = tested on: Limulus Amoebocyte Lysate; test: Limulus Amoebocyte Lysate chromogenic test (LAL endotoxicity); format: biochemical
Procedure: Endotoxicity was determined first for OM-197-MP-AC and for OM-294-DP by the Limulus Amoebocyte Lysate chromogenic test (Chromogenic-LAL of Bio-Whittaker, kit n° 50-65OU).
The enzymatic reaction is carried out at 37° C. and the formation of the chromogen over time is measured at 405 nm. The time necessary to reach 0.2 units of D.O. is recorded and the endotoxic activity calculated in relation to a LPS standard (standard curve). The results are expressed in EU (Endotoxin Unit) in relation to a standardized preparation of E. coli LPS (1 EU corresponds to 0.08 ng equivalent LPS).

[3] = 1 mg/Kg i.p. therapeutic, versus untreated mice

CCCCCCCCCCCC(=O)O[C@H](CCCCCCCCCCC)CC(=O)N[C@@H](CCOP(=O)(O)O)C(=O)NCCC[C@H](COC(=O)CCCCCN)NC(=O)C[C@H](O)CCCCCCCCCCC [OM-197-MP-AC, (3S, 9R)-3-[(R)-3-dodecanoyloxytetradecanoylamino]-4-oxo-5-aza-9-[(R)-3-hydroxytetradecanoylamino]-decan-1, 10-diol 1-dihydrogenophosphate 10-(6-aminohexanoate)]
Eosinophils in BAL, less than untreated mice ([1]; 1 mg/Kg i.p. on days 15, 17, 19 (therapeutic)): 40-45 fold less | BAL cell recruitment impaired ([1]; 1 mg/Kg i.p. on days 15, 17, 19 (therapeutic), versus untreated mice): 90% | Lung IFN-γ levels, treated versus untreated mice ([1]; 1 mg/Kg i.p. therapeutic): reduced | Lung IL-10 amounts upon treatment ([1]; 1 mg/Kg i.p. therapeutic): not significantly increased | LACK-specific IgE in sera, less than untreated LACK challenged mice ([1]; 1 mg/Kg i.p. therapeutic, ELISA): 2 fold less | Lung IL-4 levels reduced [1, 3]: 90% | Lung IL-5 amounts reduced [1, 3]: 70% | Lung IL-13 amounts reduced [1, 3]: 85% | LPS-induced production of IL-10 (murine DC cells): increase | LPS-induced production of IL-12 (murine DC cells): decrease | LPS-induced production of TNF-α (murine DC cells): decrease | Limulus activity in the chromogenic LAL assay [2]: very little or no Limulus activity
